The source of these data is US6545009B1, “Retinoid-related receptor function regulating agent” (Takeda Chemical Industries, Ltd., priority 1998, dated 2003).

The EC50 is the concentration that produces a half-maximal response. A higher EC50 goes with a need for much substance. Broadly, the melting point is the temperature of the solid-liquid transition.

In one data set the target is T1, PPARγ-RXRα heterodimer (Homo sapiens, UniProt P19793+P37231).
T1 construct: expressed in transfected cells; host or cells: CHO-K1
T1 sequence (P37231 1-477 isoform P37231-2): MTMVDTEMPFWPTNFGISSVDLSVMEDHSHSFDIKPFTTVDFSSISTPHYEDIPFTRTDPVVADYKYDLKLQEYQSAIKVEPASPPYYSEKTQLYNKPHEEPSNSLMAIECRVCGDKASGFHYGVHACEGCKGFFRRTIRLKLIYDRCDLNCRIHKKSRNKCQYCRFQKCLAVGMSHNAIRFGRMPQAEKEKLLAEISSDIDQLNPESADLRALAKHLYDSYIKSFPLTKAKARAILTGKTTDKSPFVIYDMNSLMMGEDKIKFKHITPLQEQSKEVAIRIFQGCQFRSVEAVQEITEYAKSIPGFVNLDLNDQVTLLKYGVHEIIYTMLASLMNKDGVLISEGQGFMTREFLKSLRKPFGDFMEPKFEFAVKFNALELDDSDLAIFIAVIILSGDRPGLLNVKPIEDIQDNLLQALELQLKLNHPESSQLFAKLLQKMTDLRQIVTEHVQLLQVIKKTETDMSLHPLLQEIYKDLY
T1 sequence (P19793 1-462): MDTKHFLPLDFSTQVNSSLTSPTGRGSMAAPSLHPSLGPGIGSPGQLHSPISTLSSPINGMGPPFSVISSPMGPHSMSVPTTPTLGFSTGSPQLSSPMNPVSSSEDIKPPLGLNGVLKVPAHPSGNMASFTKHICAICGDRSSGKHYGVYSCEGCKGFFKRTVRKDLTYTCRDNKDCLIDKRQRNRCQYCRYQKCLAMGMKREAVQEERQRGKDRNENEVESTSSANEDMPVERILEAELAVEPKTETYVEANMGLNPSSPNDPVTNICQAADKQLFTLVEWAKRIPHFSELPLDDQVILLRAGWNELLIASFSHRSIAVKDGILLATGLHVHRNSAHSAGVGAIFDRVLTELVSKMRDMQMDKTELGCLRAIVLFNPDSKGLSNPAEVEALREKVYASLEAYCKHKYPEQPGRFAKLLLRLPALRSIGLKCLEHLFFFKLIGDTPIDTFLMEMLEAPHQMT
The data set can be described thus: PPARγ-RXRα heterodimer ligand activity (luciferase reporter in PPARγ:RXRα:4ERPP/CHO-K1 cells). The following applies: for EC50: luciferase fold induction, 48 hours. Type of data set: cell-based. The method, then: PPAR γ:RXR α:4ERPP/CHO-K1 cells obtained in Reference Example 5 were cultured in HAM F12 medium (produced by NISSUI SEIYAKU) containing 10% Fetal bovine serum (produced by Life Technologies, Inc., USA) and then inoculated to a 96-well white plate (produced by Corning Costar Corporation, USA) at the density of 2×10^4 cells/well, and cultured in a CO2 gas incubator at 37° C. overnight.
After washing the 96 well white plate with PBS (Phosphate-buffered saline), 90 μl of HAM F12 medium containing 0.1% fatty acid-free bovine serum albumin (BSA) and 10 μl of test compound were added to each well, and the plate was cultured in a CO2 gas incubator at 37° C. for 48 hours. After removing the medium, 40 μl of PIKKAGENE 7.5 (produced by Wako Pure Chemical Industries, Ltd.) was added to the well. After stirring, the luciferase activity was determined using Lumistar (produced by BMG Labtechnologies GmbH, Germany).
A fold induction was calculated based on the luciferase activity of each test compound by estimating the luciferase activity in the non-treatment group as 1. The values of the test compound concentration and the fold induction were used to calculate the EC50 values, the effective concentration of a test compound for 50% of the maximum fold induction, by using PRISM 2.01 (produced by GraphPad Software Inc. USA).
PPARγ:RXRα:4ERPP/CHO-K1 cells obtained in Reference. Example 5 were cultured in HAM F12 medium (produced by NISSUI SEIYAKU) containing 10% Fetal bovine serum (produced by Life Technologies, Inc., USA) and then inoculated to a 96-well white plate (produced by Corning Costar Corporation, USA) at the density of 2×10^4 cells/well, and cultured in a CO2 gas incubator at 37° C. overnight.
After washing the 96 well white plate with PBS (Phosphate-buffered saline), 90 μl of HAM F12 medium containing 0.1% fatty acid-free bovine serum albumin (BSA) and 10 μl of test compound were added to each well, and the plate was cultured in a CO2 gas incubator at 37° C. for 48 hours. After removing the medium, 40 μl of PIKKAGENE 7.5 produced by Wako Pure Chemical Industries, Ltd.) was added to the well. After stirring, the luciferase activity was determined using Lumistar (produced by BMG Labtechnologies Gmbh, Germany).
A fold induction was calculated based on the luciferase activity of each test compound by estimating the luciferase activity in the non-treatment group as 1. The values of the test compound concentration and the fold induction were used to calculate the EC50 values, the effective concentration of a test compound for 50% of the maximum induction, by using PRISM 2.01 (produced by GraphPad Software Inc. USA). The results are shown in [Table 1].
(In general: In a reporter assay the amount or activity of a reporter protein is the signal.)

In a further data set the test system is KKA^y mice. As to the kind of experiment: Hypoglycemic and hypolipidemic (hypotriglyceridemic) activities in mice. The following applies: four days; for Hypoglycemic effect (%) / Hypolipidemic effect (%): 0.01% in powdered diet; for Hypoglycemic effect (%): reduction rate of plasma glucose compared with non-treatment group; for Hypolipidemic effect (%): reduction rate of plasma triglyceride compared with non-treatment group. In kind it is in vivo. As to the method: Test compound was mixed in a powdered diet (CE-2, Japan Clea) at the concentration of 0.01%, and freely given to KKA^y mice (9 to 12 weeks old, 5 mice in a group) a model of obese and non-insulin-dependent diabetes mellitus (Type 2 diabetes mellitus), for four days. […] During the experimental period, water was given freely Blood was obtained from orbital venous plexus, and glucose and triglyceride levels in plasma were determined enzymatically using L type Wako Glu2 (Wako Pure Chemical Industries, Ltd.) and L type Wako TG·H (Wako Pure Chemical Industries, Ltd.), respectively.
Test compound was mixed in a powdered diet (CE-2, Japan Clea) at the concentration of 0.01%, and freely given to KKA^y mice (9 to 12 weeks old, 5 mice in a group), a model of obese and.non-insulin-dependent diabetes mellitus (Type 2 diabtes mellitus), for four days. During this period, water was given freely. Blood was obtained from orbital venous plexus, and glucose and triglyceride levels in plasma were determined enzymatically using L type Wako Glu2 (Wako Pure Chemical Industries, Ltd.) and L type Wako TG·H (Wako Pure Chemical Industries, Ltd.), respectively.
The value of each treatment group is represented as reduction rate (%) compared with the non-treatment group, which is shown in [Table 2].

`O=C(O)c1ccc(-c2nc(-c3ccc(Cl)cc3)co2)cc1` [Example 8, 4-[4-(4-chlorophenyl)-2-oxazolyl]benzoic acid] had an EC50 at PPARγ-RXRα heterodimer of 92 nM.

Take `O=C(O)c1ccc(-c2nc(-c3ccc(Cl)cc3)cs2)cc1` [Example 52, 4-[4-(4-chlorophenyl)-2-thiazolyl]benzoic acid]: the “PPARγ-RXRα heterodimer ligand activity” value on PPARγ-RXRα heterodimer (at a concentration ranging from 10^−5 M to 10^−9 M) was “potent”. For the same molecule, the hypoglycemic activity result in the data set with KKA^y mice (0.01% in diet, dose ranging from 0.1 to 50 mg/kg/day, plasma glucose) was “potent”. In addition, the “hypolipidemic (hypotriglyceridemic) activity” value in the data set with KKA^y mice (0.01% in diet, dose ranging from 0.1 to 50 mg/kg/day, plasma triglyceride) is “potent”.

Molecule `O=C(O)c1ccc(-c2cnc(-c3ccc(C(F)(F)F)cc3)o2)cc1` [Example 110, 4-[2-(4-trifluoromethylphenyl)-5-oxazolyl]benzoic acid] returned a melting point of 253 to 254 °C. The molecule further registered a concentration for a half-maximal effect (EC50) on PPARγ-RXRα heterodimer of 48 nM. Also, in the data set on KKA^y mice, the “Hypoglycemic effect (%)” value was found to be 73% and the “Hypolipidemic effect (%)” value was 87%.

With `O=C(O)c1cccc(-c2nc(-c3cc(Cl)sc3Cl)cs2)c1` [Example 95, 3-[4-(2,5-dichloro-3-thienyl)-2-thiazolyl]benzoic acid], the melting point lay in the range of 241 to 242 °C. At PPARγ-RXRα heterodimer, this molecule registered an EC50 of 100 nM.

Turning to `CC(C)c1ccc(-c2csc(-c3cccc(C(=O)O)c3)n2)cc1` [Example 100, 3-[4-(4-isopropylphenyl)-2-thiazolyl]benzoic acid], the melting point fell in the range of 214 to 215 °C. This molecule also had an EC50 on PPARγ-RXRα heterodimer of 5.1 nM.

`O=C(O)c1ccc(-c2nc(-c3ccc(C(F)(F)F)cc3)co2)cc1` [Example 9, 4-[4-(4-trifluoromethylphenyl)-2-oxazolyl]benzoic acid] came in with a melting point of 258 to 259 °C. At PPARγ-RXRα heterodimer, the concentration giving a half-maximal response (EC50) stood at 23 nM. In the data set on KKA^y mice, the “Hypoglycemic effect (%)” value worked out at 51% and the “Hypolipidemic effect (%)” value is on record as 67%.

Regarding `O=C(O)c1ccc(-c2nc(-c3ccc(OC(F)(F)F)cc3)cs2)cc1` [Example 64, 4-[4-(4-trifluoromethoxylphenyl)-2-thiazolyl]benzoic acid], the melting point is 245 to 246 °C. Further, the half-maximal effective concentration (EC50) at PPARγ-RXRα heterodimer turned out to be 310 nM. Besides, in the data set with KKA^y mice, the “Hypoglycemic effect (%)” value amounted to 68% and the “Hypolipidemic effect (%)” value turned out to be 88%.

Consider `Cc1cc(-c2csc(-c3cccc(C(=O)O)c3)n2)c(C)o1` [Example 72, 3-[4-(2,5-dimethyl-3-furyl)-2-thiazolyl]benzoic acid], for which the melting point fell in the range of 174 to 175 °C. This molecule had an EC50 on PPARγ-RXRα heterodimer of 0.6 nM.

Consider `O=C(O)c1ccc(-c2nc(-c3ccc(C(F)(F)F)cc3)cs2)cc1` [Example 55, 4-[4-(4-trifluoromethylphenyl)-2-thiazolyl]benzoic acid], for which the melting point lay within 164 to 165 °C. This molecule also yielded a 50% effective concentration (EC50) on PPARγ-RXRα heterodimer of 68 nM. In the data set with KKA^y mice, the “Hypoglycemic effect (%)” value worked out at 70% and the “Hypolipidemic effect (%)” value stood at 86%.

`CCOc1ccc(-c2csc(-c3cccc(C(=O)O)c3)n2)cc1` [Example 96, 3-[4-(4-ethoxyphenyl)-2-thiazolyl]benzoic acid] gave an EC50 at PPARγ-RXRα heterodimer of 1.9 nM.

Take `O=C(O)c1ccc(-c2cnc(-c3ccc(C(F)(F)F)cc3)s2)cc1` [Example 113, 4-[2-(4-trifluoromethylphenyl)-5-thiazolyl]benzoic acid]: the midpoint of the response on PPARγ-RXRα heterodimer, the EC50, lay at 60 nM. Besides, in the data set on KKA^y mice, the “Hypoglycemic effect (%)” value worked out at 45% and the “Hypolipidemic effect (%)” value is 53%.
